Data taken from patent US8067394B2, “Synthesis and biological activities of new tricyclic-bis-enones (TBEs)” (Trustees of Dartmouth College, priority 2006, dated 2011).
“Also recorded” adds a separate entry of the source. Where two headings read alike, the source gives them in different places.

What was measured:
[1] = test system: NO production in RAW cells; assay: Inhibition of NO production in RAW cells stimulated with interferon-γ; assay type: cell-based, mouse; settings: for IC50: read-out: IC50 (nM), NO production in RAW cells
[2] = test system: MCF-7 mouse breast cancer cell lines; settings: Honda et al., 2003; cited from earlier work
[3] = test system: NO production in primary mouse macrophages; settings: cited from earlier work; for IC50: Table 1, stimulated with interferon-γ, compounds racemic
[4] = test system: HO-1; assay: Induction of HO-1 in RAW cells (Western blot); assay type: cell-based, mouse; settings: FIG. 9; 30-300 nM, 24 hours
[5] = test system: heme oxygenase-1; assay: Induction of heme oxygenase-1 in liver of CD-1 mice after gavage; assay type: in vivo; settings: FIG. 3; CD-1 mice, gavage in DMSO, livers after 6 h
Method: FIG. 3. […] CD-1 mice (2 per group) were gavaged with TBEs or CDDO-Im in DMSO. After 6 h, livers were harvested and homogenized. Lysates were separated by SDS-PAGE, probed with HO-1 antibodies, and developed by ECL.
FIG. 11. […] Male CD-1 mice (3 per group) were gavaged with 1 μmol TBEs, CDDO or CDDO-Im in DMSO. Six hours later, livers were harvested and homogenized. Lysates were separated by SDS-PAGE, probed with HO-1 antibodies, and developed by ECL.
CD-1 mice (2 per group) were gavaged with TBEs or CDDO-Im in DMSO. After 6 h, livers were harvested and homogenized. Lysates were separated by SDS-PAGE, probed with HO-1 antibodies, and developed by ECL.

[6] = test system: iNOS; assay: Inhibition of iNOS induction in RAW cells stimulated with IFN-γ (Western blot); assay type: cell-based, mouse; settings: FIG. 10; 30-300 nM, IFNγ 10 ng/ml, 24 hours
[7] = test system: NO production in RAW cells; settings: Honda et al., 2000, 2002; cited from earlier work
[8] = Mus musculus, Table 6, optically active TBE-31 and 34, stimulated with interferon-7
[9] = Mus musculus, Table 5, C-8a functionalized TBE-9 analogs, stimulated with interferon-γ

Work on `CC1(C)C(=O)C(C#N)=CC2(C)C3=CC(=O)C(C#N)=CC3(C#C[Si](C)(C)C)CCC12` (single isomer, unassigned; (-)) [(−)-TBE-34] yielded an IC50 ([1]; Table 6, optically active TBE-31 and 34, stimulated with interferon-7) of 3 nM.

Compound `C#C[C@@]12C=C(C#N)C(=O)C=C1[C@@]1(C)C=C(C#N)C(=O)C(C)(C)[C@H]1CC2` [(+)-TBE-31, (+)-(4bS,8aS,10aR)-10a-ethynyl-4b,8,8-trimethyl-3,7-dioxo-3,4b,7,8,8a,9,10,10a-octahydrophenanthrene-2,6-dicarbonitrile] has an IC50 [1, 8] of 1 nM.

In the case of `CC1(C)C(=O)C(C#N)=C[C@]2(C)C3=CC(=O)C(C#N)=C[C@]3(C)CC[C@@H]12` [(−)-TBE-9], the “Activity against MCF-7 mouse breast cancer cell lines” value [2] is listed as “active”.

In the case of `C#C[C@]12C=C(C#N)C(=O)C=C1[C@@]1(C)C=C(C#N)C(=O)C(C)(C)[C@@H]1CC2` [(−)-TBE-31], the IC50 [1, 8] is reported as 3 nM.

In the case of `CC1(C)CC[C@]2(C(=O)O)CC[C@]3(C)[C@H](C(=O)C=C4[C@@]5(C)C=C(C#N)C(=O)C(C)(C)[C@@H]5CC[C@]43C)[C@@H]2C1` [CDDO, 2-cyano-3,12-dioxooleana-1,9(11)-dien-28-oic acid, reference compound], the IC50 ([1]; Table 4, C-8a functionalized TBE-10 analogs, stimulated with interferon-γ) is listed as 6 nM, the IC50 ([1]; Table 5, C-8a functionalized TBE-9 analogs, stimulated with interferon-γ) is listed as 20 nM and the IC50 [3] is listed as 0.5 nM.

For `CC1(C)CC[C@]2(C(=O)n3ccnc3)CC[C@]3(C)[C@H](C(=O)C=C4[C@@]5(C)C=C(C#N)C(=O)C(C)(C)[C@@H]5CC[C@]43C)[C@@H]2C1` [CDDO-Im, 1-[2-cyano-3-,12-dioxooleana-1,9(11)-dien-28-oyl]imidazole, reference compound], the “Induction of HO-1 in RAW cells” value [4] was “most potent compound amongst semi-synthetic triterpenoid analogues in this assay” and the “Induction of heme oxygenase-1 in liver in vivo” value [5] was “very potent triterpenoid agent for induction of heme oxygenase-1”.

For `CC1(C)CC[C@]2(C(=O)O)CC[C@]3(C)C(=CC[C@@H]4[C@@]5(C)CC[C@H](O)C(C)(C)[C@@H]5CC[C@]43C)[C@@H]2C1` [Oleanolic acid, reference compound], the IC50 [3] is listed as greater than 40000 nM.

For `CC(=O)O[C@@H]1CCC=C2[C@@]3(C)C=C(C#N)C(=O)C(C)(C)[C@@H]3CC[C@]21C` [TBE-2], the IC50 [3] is listed as 480 nM.

For `CC(=O)O[C@@H]1CC(=O)C=C2[C@@]3(C)C=C(C#N)C(=O)C(C)(C)[C@@H]3CC[C@]21C` [TBE-3], the IC50 [3] is given as 53 nM.

For `CC1(C)C(=O)C(C#N)=C[C@]2(C)C3=CC(=O)C[C@@H](O)[C@]3(C)CC[C@@H]12` [TBE-4], the IC50 [3] is given as 75 nM.

In the case of `CC1(C)C(=O)C(C#N)=C[C@]2(C)C3=CC(=O)C=C[C@]3(C)CC[C@@H]12` [TBE-5], the IC50 [3] is listed as 61 nM.

In the case of `CC1(C)C(=O)C(C#N)=CC2(C)C3=CC(=O)C(C#N)=CC3(C#C[Si](C)(C)C)CCC12` (stereo not shown) [TBE-34], the “Inhibition of induction of iNOS in RAW cells stimulated with IFNγ” value [6] is reported as “nearly equivalent in potency to TBE-31; also recorded: nearly equivalent in potency to both compounds”, the “Potency for inhibition of NO production in RAW cells (in words)” value [1] is reported as “nearly equivalent potency to that of TBE-31” and the IC50 ([1]; Mus musculus) is reported as 3 nM. The “Induction of HO-1 in RAW cells” value [4] was “nearly equivalent in potency to TBE-31”.

`CC#CC12C=C(C#N)C(=O)C=C1C1(C)C=C(C#N)C(=O)C(C)(C)C1CC2` (stereo not shown) [TBE-35] gave an IC50 [1, 9] of 5 nM.

`CCC#CC12C=C(C#N)C(=O)C=C1C1(C)C=C(C#N)C(=O)C(C)(C)C1CC2` (stereo not shown) [TBE-36] showed an IC50 [1, 9] of 20 nM.

For `CC1(C)C(=O)C(C#N)=CC2(C)C3=CC(=O)C(C#N)=CC3(C#CC#N)CCC12` (stereo not shown) [TBE-38], the IC50 [1, 9] was 4 nM.

With `C#CC#CC12C=C(C#N)C(=O)C=C1C1(C)C=C(C#N)C(=O)C(C)(C)C1CC2` (stereo not shown) [TBE-39] the IC50 [1, 9] was 3 nM and the “Potency for inhibition of NO production in RAW cells (in words)” value ([1]; RAW cells, interferon-γ) was “nearly equivalent potency to that of TBE-31”.

In the case of `COC(=O)[C@]12CCC(C)(C)C[C@H]1C1C(=O)C=C3[C@@]4(C)C=C(C(=O)O)C(=O)C(C)(C)[C@@H]4CC[C@@]3(C)[C@]1(C)CC2` (stereo partly shown) [TP-190, reference compound], the “Inhibition of NO production in RAW cells (in words)” value [7] is listed as “potent inhibitors of NO production” and the “Inhibition of NO production in mouse macrophages (in words)” value ([3]; Honda et al., 2000, 2002) is listed as “potent inhibitors of NO production”.

Work on `CC1(C)CC[C@]2(C#N)CC[C@]3(C)[C@H](C(=O)C=C4[C@@]5(C)C=C(C#N)C(=O)C(C)(C)[C@@H]5CC[C@]43C)[C@@H]2C1` [TP-225, reference compound] yielded an IC50 [1, 9] of 1 nM.

In the case of `C[C@]12CCC(=O)C=C1CC[C@@H]1[C@@H]2[C@@H](O)C[C@@]2(C)[C@H]1CC[C@]2(O)C(=O)CO` [hydrocortisone, reference compound], the IC50 ([1]; Mus musculus, Table 4, C-8a functionalized TBE-10 analogs, stimulated with interferon-γ) is given as 61 nM and the IC50 [3] is given as 10 nM.
